Data published in the NIST ThermoML archive (doi:10.1016/j.fluid.2008.03.004).

Experiment: xn = mol fraction of the nth substance listed
Settings: 101 kPa, Liquid; for speed of sound: Sing-around technique in a fixed-path interferometer

CCOC(C)(C)C [2-ethoxy-2-methylpropane] + Cc1ccccc1C
Settings	mass density, 315.65 K [kg/m3]	mass density, 318.15 K [kg/m3]	mass density, 320.65 K [kg/m3]	mass density, 323.15 K [kg/m3]	speed of sound, 315.65 K [m/s]	speed of sound, 318.15 K [m/s]	speed of sound, 320.65 K [m/s]	speed of sound, 323.15 K [m/s]
x1 = 0.055	852.189	850.034	847.874	845.711	–	1246.8	1236.7	1226.7
x1 = 0.098	846.323	844.148	841.964	839.779	–	1234.5	1224.5	1214.5
x1 = 0.201	831.454	829.229	826.995	824.757	–	1200.6	1190.5	1180.4
x1 = 0.307	816.076	813.795	811.507	809.216	–	1164.1	1153.8	1143.6
x1 = 0.4	802.508	800.179	797.84	795.504	–	1135.1	1124.8	1114.5
x1 = 0.502	787.684	785.298	782.908	780.509	–	1100.9	1090.4	1080
x1 = 0.601	773.969	771.536	769.096	766.647	1080.5	1070	1059.4	1049
x1 = 0.661	765.278	762.809	760.332	757.845	1061	1050.4	1039.8	1029.2
x1 = 0.803	745.112	742.564	740.007	737.438	1017	1006.2	995.53	984.84
x1 = 0.895	731.932	729.329	726.717	724.092	989.44	978.59	967.79	957.05
x1 = 0.947	724.606	721.974	719.329	716.673	974.07	963.16	952.29	941.53
x1 = 1	716.527	713.96	711.25	708.642	953.54	942.67	931.73	920.73
